From US12584905B2, “Method for identifying molecular markers of children's skin” (LABORATOIRES EXPANSCIENCE, priority 2012, dated 2026)

Legend:
Type in all cases: cell-based, human
IL-8 protein = IL-8 protein assay in culture supernatant (Elisa test) of treated reconstructed epidermises; settings: reconstructed epidermis from 1-month-old donors, applied for 16 hours
Procedure: (§1) Reconstructed skin models were generated using these samples. Reconstructed epidermises were thus produced with the various donors selected using the technique by Poumay et al. (Arch Dermatol Res, 296(5): 203-211, 2004). After two days of submerged culture, the reconstructed epidermises were cultured at the air/liquid interface for 5 or 9 days. For the duration of the culture, the medium was replenished every 2 to 3 days.
(§2) Epidermises were reconstructed as specified in example 1 with keratinocytes from donors of 1 month of age. The products, a cleansing cream and a moisturising lotion both containing avocado perseose, were applied on these reconstructed epidermises for 16 hours. A control was produced by applying 0.4% SDS on control reconstructed epidermis samples.
(§3) IL-8 protein was assayed in the culture supernatant using an Elisa test. The cell viability was evaluated using the MTT test. Finally, a histological analysis was conducted on tissues included in paraffin by means of haematoxylin and eosin staining.

[1] = system: reconstructed epidermises from donors of 1 month of age; experiment: Cell viability (MTT test) of reconstructed epidermises after product application; settings: reconstructed epidermis from 1-month-old donors, applied for 16 hours
Procedure: as §1, §2, §3

[2] = system: reconstructed epidermises from donors of 1 month of age; experiment: Histological analysis (haematoxylin and eosin) of thickness of live cell layers of treated reconstructed epidermises; settings: histology, reconstructed epidermis from 1-month-old donors, applied for 16 hours, control = 100%, SDS at 0.4%
Procedure: as §1, §2, §3

IL8 inflammatory molecule (IL-8 protein; Elisa in culture supernatant, control = 100%, SDS at 0.4%): 602%
Effect on IL-8 expression (in words) (IL-8 protein): significant increase
SMILES: CCCCCCCCCCCCOS(=O)(=O)[O-].[Na+] [SDS]
Viability ([1]; MTT test, control = 100%, SDS at 0.4%): 2%
Effect on cell viability (in words) [1]: very significantly reduced
Thickness of live layers [2]: 58%
